DBAASP
≈ marks a conversion by molar mass, not a printed value.

How the values were obtained:
Assay in all cases: ≥ marks a high value that may be exact or a test limit, other limits are often not marked, values filed in µg/mL are converted to µM
[1] = system: Enterococcus faecalis ATCC 29212
[2] = system: Pseudomonas aeruginosa ATCC 15442
[3] = system: Listeria monocytogenes ATCC 19114
[4] = system: Listeria monocytogenes ATCC 7644
[5] = system: Staphylococcus aureus ATCC 25923
[6] = system: Staphylococcus epidermidis ATCC 35984
[7] = system: Staphylococcus aureus ATCC 6538
Listeria monocytogenes = system: Listeria monocytogenes
[8] = system: Staphylococcus aureus ATCC 29213
[9] = system: Listeria monocytogenes NCTC 18890
[10] = system: Listeria monocytogenes ATCC 19115
[11] = system: Bacillus subtilis ATCC 6051
[12] = system: Enterococcus faecium 5F-10
[13] = system: Salmonella enterica ATCC H9812
[14] = system: Bacillus cereus ATCC 14579
[15] = system: Bacillus amyloliquefaciens ATCC 23842
[16] = system: Bacillus licheniformis ATCC 14580
[17] = system: Escherichia coli ATCC 25922
[18] = system: Proteus mirabilis ATCC 35659
[19] = system: Pseudomonas aeruginosa PAO1
[20] = system: Enterococcus faecalis 1F-1
[21] = system: Staphylococcus aureus ATCC 9144
[22] = system: Escherichia coli ATCC 10536
[23] = system: Escherichia coli DH5alpha
[24] = system: Bacillus subtilis ATCC 6633
[25] = system: Klebsiella pneumoniae ATCC 13883
[26] = system: Staphylococcus aureus JE2
[27] = system: Klebsiella pneumoniae NCTC 5055
[28] = system: Escherichia coli ATCC 15597
[29] = system: Pseudomonas aeruginosa ATCC 27853
[30] = system: Salmonella typhimurium DA6192
[31] = system: Micrococcus luteus ATCC 49732
[32] = system: Legionella pneumophila Lens
Escherichia coli J2210 = system: Escherichia coli J2210
Escherichia coli O157:H7 = system: Escherichia coli O157:H7
Escherichia coli MC1061 = system: Escherichia coli MC1061
[33] = system: Salmonella enterica subsp. enterica serovar Enteritidis MH91989
Escherichia coli JJ2487 = system: Escherichia coli JJ2487
[34] = system: Salmonella typhimurium SL1344
Escherichia coli C25 = system: Escherichia coli C25

Structure (SMILES): CC(C)C[C@H](NC(=O)[C@H](C)NC(=O)[C@H](Cc1cnc[nH]1)NC(=O)[C@H](Cc1cnc[nH]1)NC(=O)CNC(=O)[C@H](CC(C)C)NC(=O)[C@H](Cc1cnc[nH]1)NC(=O)[C@H](CO)NC(=O)[C@H](C)N)C(=O)N[C@@H](CC(=O)O)C(=O)N[C@@H](Cc1cnc[nH]1)C(=O)N[C@@H](CC(C)C)C(=O)N[C@@H](CC(C)C)C(=O)N[C@@H](CCCCN)C(=O)O [ASHLGHHALDHLLK]
- MIC [1]: 8070 µM (≈ 12500 µg/mL)
- MIC [2]: ≥ 8070 µM
- MIC [3]: ≥ 3230 µM
- MIC [4]: ≥ 3230 µM
- MIC [5]: 8070 µM (≈ 12500 µg/mL)
- MIC [6]: ≥ 8070 µM
- MIC [7]: 8070 µM (≈ 12500 µg/mL)
- MIC (Listeria monocytogenes): ≥ 3230 µM
- MIC [8]: 8070 µM (≈ 12500 µg/mL)
- MIC [9]: ≥ 3230 µM
- MIC [10]: ≥ 3230 µM

Structure (SMILES): CC(C)C[C@H](NC(=O)[C@H](CC(C)C)NC(=O)[C@H](CCC(=O)O)NC(=O)[C@@H](N)CC(=O)O)C(=O)N[C@@H](CO)C(=O)N[C@@H](CCCN=C(N)N)C(=O)N[C@H](C(=O)O)C(C)C [DELLSRV]
- MIC [11]: ≥ 154 µM
- MIC [12]: ≥ 154 µM
- MIC [13]: ≥ 77 µM
- MIC [14]: ≥ 154 µM
- MIC [15]: ≥ 154 µM
- MIC [16]: ≥ 154 µM
- MIC [17]: 38.5 µM (≈ 32 µg/mL)
- MIC [18]: ≥ 154 µM
- MIC [8]: > 154 µM
- MIC [19]: > 154 µM
- MIC [20]: ≥ 154 µM

Structure (SMILES): CC[C@H](C)[C@H](NC(=O)CN)C(=O)NCC(=O)N[C@@H](C)C(=O)N[C@H](C(=O)N[C@@H](CC(C)C)C(=O)N[C@@H](CCCCN)C(=O)N[C@H](C(=O)N[C@@H](CC(C)C)C(=O)N[C@H](C(=O)N[C@H](C(=O)NCC(=O)N[C@@H](CC(C)C)C(=O)N1CCC[C@H]1C(=O)N[C@@H](C)C(=O)N[C@@H](C)C(=O)N[C@H](C(=O)N[C@@H](CO)C(=O)N[C@@H](Cc1c[nH]c2ccccc12)C(=O)N[C@H](C(=O)N[C@@H](CCCCN)C(=O)N[C@@H](CCCN=C(N)N)C(=O)N[C@@H](CCCCN)C(=O)N[C@@H](CCCN=C(N)N)C(=O)N[C@@H](CCC(N)=O)C(=O)N[C@@H](CCC(N)=O)C(N)=O)[C@@H](C)CC)[C@@H](C)CC)[C@@H](C)O)[C@@H](C)O)C(C)C)C(C)C [GIGAVLKVLTTGLPAAISWIKRKRQQ]
- MIC [21]: 4.2 µM (≈ 11.8 µg/mL)
- MIC [22]: 4.1 µM (≈ 11.5 µg/mL)
- MIC [23]: 4.2 µM (≈ 11.8 µg/mL)
- MIC [24]: 3.9 µM (≈ 10.9 µg/mL)

Structure (SMILES): CC(C)C[C@H](NC(=O)[C@H](CC(C)C)NC(=O)[C@H](CCCCN)NC(=O)[C@H](CC(C)C)NC(=O)CNC(=O)[C@H](CC(C)C)NC(=O)[C@H](CCCCN)NC(=O)[C@H](CC(C)C)NC(=O)[C@H](CC(C)C)NC(=O)[C@H](CC(C)C)NC(=O)[C@H](CCCCN)NC(=O)[C@H](CC(C)C)NC(=O)CN)C(N)=O [GLKLLLKLGLKLL]
- MIC [25]: 25 µM (≈ 35.5 µg/mL)
- MIC [26]: 1.56 µM (≈ 2.22 µg/mL)
- MIC [17]: > 25 µM
- MIC [19]: > 25 µM

Structure (SMILES): CC[C@H](C)[C@H](N)C(=O)N[C@H](C(=O)N[C@@H](CCCCN)C(=O)N[C@@H](CCC(N)=O)C(=O)N[C@H](C(=O)N[C@H](C(=O)N[C@@H](CCCCN)C(=O)N[C@@H](CCC(N)=O)C(=O)N[C@@H](CC(C)C)C(=O)N[C@@H](CC(N)=O)C(=O)N[C@@H](CCCN=C(N)N)C(=O)N[C@@H](CCC(N)=O)C(=O)N[C@H](C(=O)N[C@@H](CCCCN)C(=O)N[C@H](C(=O)N[C@@H](CCC(N)=O)C(=O)N[C@@H](CO)C(=O)N[C@@H](CCCCN)C(=O)O)[C@@H](C)CC)[C@@H](C)O)[C@@H](C)O)[C@@H](C)CC)[C@@H](C)O [ITKQITKQLNRQTKIQSK]
- MIC [27]: ≥ 100 µM
- MIC [28]: ≥ 100 µM
- MIC [29]: > 100 µM
- MIC [30]: ≥ 100 µM
- MIC [7]: > 100 µM
- MIC [31]: ≥ 100 µM
- MIC [24]: ≥ 100 µM

Structure (SMILES): CC[C@H](C)[C@H](NC(=O)[C@H](CC(C)C)NC(=O)[C@H](CC(=O)O)NC(=O)[C@@H](NC(=O)[C@@H](NC(=O)[C@H](Cc1ccccc1)NC(=O)[C@H](CCC(N)=O)NC(=O)[C@@H](N)CCSC)[C@@H](C)CC)[C@@H](C)O)C(=O)N[C@@H](CCCCN)C(=O)N[C@@H](CCCCN)C(=O)N[C@@H](C)C(=O)N[C@H](C(=O)N[C@@H](CC(=O)O)C(=O)N[C@H](C(=O)N[C@H](C(=O)N[C@@H](CCCCN)C(=O)NCC(=O)N[C@@H](CC(C)C)C(=O)N[C@@H](Cc1ccccc1)C(=O)NCC(=O)N[C@@H](CC(N)=O)C(=O)N[C@@H](CCCCN)C(=O)O)[C@@H](C)CC)C(C)C)C(C)C [MQFITDLIKKAVDVIKGLFGNK]
- MIC [32]: 1.26 µM (≈ 3.12 µg/mL)

Structure (SMILES): CC[C@H](C)[C@H](NC(=O)[C@H](CCCN=C(N)N)NC(=O)[C@H](CCCN=C(N)N)NC(=O)[C@@H]1CCCN1C(=O)[C@@H]1CCCN1C(=O)[C@H](CCCN=C(N)N)NC(=O)[C@@H]1CCCN1C(=O)[C@H](CCCN=C(N)N)NC(=O)[C@@H]1CCCN1C(=O)[C@H](CCCCN)NC(=O)[C@H](Cc1ccc(O)cc1)NC(=O)[C@@H]1CCCN1C(=O)[C@H](CCCCN)NC(=O)[C@H](CCCCN)NC(=O)[C@H](CC(=O)O)NC(=O)[C@@H](N)C(C)C)C(=O)N[C@@H](Cc1ccc(O)cc1)C(=O)N[C@@H](CC(N)=O)C(=O)N[C@@H](CCCN=C(N)N)C(N)=O [VDKKPYKPRPRPPRRIYNR]
- MIC (Escherichia coli J2210): 0.0821 µM (≈ 0.2 µg/mL)
- MIC (Escherichia coli O157:H7): 0.644 µM (≈ 1.57 µg/mL)
- MIC (Escherichia coli MC1061): 0.0616 µM (≈ 0.15 µg/mL)
- MIC [33]: 0.172 µM (≈ 0.42 µg/mL)
- MIC (Escherichia coli JJ2487): 0.123 µM (≈ 0.3 µg/mL)
- MIC [34]: 0.172 µM (≈ 0.42 µg/mL)

Structure (SMILES): CC[C@H](C)[C@H](NC(=O)CNC(=O)[C@H](CCCN=C(N)N)NC(=O)[C@H](Cc1ccc(O)cc1)NC(=O)[C@@H](NC(=O)[C@H](CCCN=C(N)N)NC(=O)[C@H](Cc1ccccc1)NC(=O)[C@@H](N)Cc1c[nH]c2ccccc12)C(C)C)C(=O)N[C@@H](Cc1ccc(O)cc1)C(=O)N[C@@H](CCCN=C(N)N)C(=O)N[C@@H](CCCN=C(N)N)C(=O)N[C@@H](CCCN=C(N)N)C(N)=O [WFRVYRGIYRRR]
- MIC (Escherichia coli C25): ≥ 72 µM
- MIC [5]: 72 µM (≈ 124 µg/mL)
